From patent publication US11679107B2 (Eisai R&D Management Co., Ltd., priority 2018, dated 2023)
Like-named read-outs stand apart in the source and are kept apart here.

How the values were obtained:
SF3b complexes = target: T1, SF3b complexes (Homo sapiens, UniProt O75533+Q7RTV0); assay: Scintillation proximity assay (SPA) with [3H]-labelled pladienolide probe; assay type: binding; details: SF3B1 (WT); geometric mean; read-out: SPA-ATS GMean IC50 (nM) SF3B1 (WT)
T1 construct: endogenous in cells; host or cells: Nuclear extracts; A HeLa S3 extract preparation is described for the in vitro splicing assay
How it was run: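 SF3b complexes captured from nuclear extracts on anti-SF3B1 antibody SPA beads; test compounds pre-incubated 30 min before 2.5 nM [3H]-pladienolide probe added, then 30 min incubation. Bound probe read by scintillation; values from non-linear regression of concentration–response curves.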

[1] = tested on: NCI-H1568 cells (high MCL1); assay: Cell proliferation and viability, CellTiter-Glo, 72 hours; assay type: cell-based; details: for GI50: geometric mean
How it was run: (§1)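 ATP luminescence (CellTiter-Glo) was measured 72 h after treatment with compound at 10 μM–100 pM (11 points, half-log) in 0.1% DMSO. The Panc line was grown in RPMI-1640 plus insulin and 15% FBS, the other in 10% FBS. Data were normalised to time zero and vehicle controls, where −100% is cidal and 0% static.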

[2] = tested on: Panc 05.04 cells (SF3b K700E mutant); assay: as above; assay type: cell-based; details: for GI50: geometric mean
How it was run: as §1

[3] = tested on: Ad2 variant pre-mRNAs spliced in HeLa S3 nuclear extracts; assay: In vitro splicing assay (IVS), RT-qPCR of spliced product; assay type: biochemical; details: for IC50: geometric mean; for Ratio Ad2.1/2.2: ratio of IVS IC50 Ad2.1 to Ad2.2
How it was run: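 Read-out is one-step TaqMan RT-qPCR of spliced Ad2 mRNA with Ftz as reference, normalized to DMSO and fit by non-linear regression. Reactions held HeLa S3 nuclear extract, 2 ng Ad2-derived pre-mRNA and test compound, with 15 min preincubation. Splicing was started with ATP-containing activation buffer and run 90 min at 30 °C.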

[4] = NCI-H1568, read-out: CTGlo-ATS GMean GI50 (nM) 72 h NCIH1568.1, NCIH1568.1 cells, 72 h
[5] = NCIH1568.1 cells, 72 h, −100% cidal, 0% static, 100% maximal growth
[6] = PANC0504.1 cells, 72 h, −100% cidal, 0% static, 100% maximal growth
[7] = Panc 05.04, read-out: CTGlo-ATS GMean GI50 (nM) 72 h PANC0504.1, PANC0504.1 cells, 72 h
[8] = Ad2.1 pre-mRNA substrate, read-out: qPCR-IVS-ATS GMean IC50 (nM) Ad2.1
[9] = Ad2.2 pre-mRNA substrate, read-out: qPCR-IVS-ATS GMean IC50 (nM) Ad2.2
[10] = 72 h, NCIH1568.1, -100% = cidal, 0% = static, 100% = uninhibited growth
[11] = NCI-H1568, read-out: CTGlo-ATS GMean GI50 (nM) 72 h NCIH1568.1, 72 h, NCIH1568.1
[12] = 72 h, PANC0504.1, -100% = cidal, 0% = static, 100% = uninhibited growth
[13] = Panc 05.04, read-out: CTGlo-ATS GMean GI50 (nM) 72 h PANC0504.1, 72 h, PANC0504.1

Structure (SMILES) | IC50 (SF3b complexes) | GI50 [1, 4] | CTGlo-ATS Mean MinResponse % 72 h NCIH1568.1 [1, 5] | CTGlo-ATS Mean MinResponse % 72 h PANC0504.1 [2, 6] | GI50 [2, 7] | IC50 [3, 8] | IC50 [3, 9] | CTGlo-ATS Mean MinResponse % 72 h NCIH1568.1 [1, 10] | GI50 [1, 11] | CTGlo-ATS Mean MinResponse % 72 h PANC0504.1 [2, 12] | GI50 [2, 13] | Ratio Ad2.1/2.2 [3] | GI50 ([1]; NCI-H1568, 72 h, read-out: CTGlo-ATS GMean GI50 (nM) 72 h NCIH1568.1, NCIH1568.1 cells, 72 h) | GI50 ([2]; Panc 05.04, 72 h, read-out: CTGlo-ATS GMean GI50 (nM) 72 h PANC0504.1, PANC0504.1 cells, 72 h)
C/C(=C\c1cc(F)cc(N2CCC3(COC3)C2)c1)[C@H]1OC(=O)C[C@H](O)CC[C@H](C)[C@@H](OC(=O)N2CCN(C)CC2)/C=C/[C@@H]1C [Compound 33] | 5.58 nM | 12 nM | −73.122% | −77.334% | 10 nM | 28.4 nM | 27.6 nM |  |  |  |  |  |  | 
C/C(=C\c1cccc(S(=O)(=O)NC(C)(C)C)c1)[C@H]1OC(=O)C[C@H](O)CC[C@H](C)[C@@H](OC(=O)N2CCN(C)CC2)/C=C/[C@@H]1C [Compound 208, [(2S,3S,4E,6R,7S,10R)-2-[(E)-1-[3-(tert-butylsulfamoyl)phenyl]prop-1-en-2-yl]-10-hydroxy-3,7-dimethyl-12-oxo-1-oxacyclododec-4-en-6-yl] 4-methylpiperazine-1-carboxylate] | 1.77 nM |  |  |  |  | 1380 nM | 25.1 nM | −47.371% | 11.6 nM | −94.342% | 9.27 nM | 54.813 |  | 
C/C(=C\c1ccc(C)c2[nH]ncc12)[C@H]1OC(=O)C[C@H](O)CC[C@H](C)[C@@H](OC(=O)N2CCN(C)CC2)/C=C/[C@@H]1C [Compound 89, [(2S,3S,4E,6R,7S,10R)-10-hydroxy-3,7-dimethyl-2-[(E)-1-(7-methyl-1H-indazol-4-yl)prop-1-en-2-yl]-12-oxo-1-oxacyclododec-4-en-6-yl] 4-methylpiperazine-1-carboxylate] | 3.25 nM | 219 nM | −22.815% | −16.694% | 109 nM | 24700 nM | 95.4 nM |  |  |  |  |  |  | 
C/C(=C\c1cc(F)cc(N2CCOCC2)c1)[C@H]1OC(=O)C[C@@H](O)CC[C@@](C)(O)[C@@H](OC(=O)N2CCC(N3CCCCC3)CC2)/C=C/[C@@H]1C [Compound 63] | 12.3 nM | 39.3 nM | −50.769% | −96.440% | 41.2 nM | 18800 nM | 52 nM |  |  |  |  |  |  | 
C/C(=C\c1cc(F)cc(N2CCOCC2)c1)[C@H]1OC(=O)C[C@H](O)CC[C@H](C)[C@@H](OC(=O)N2CC[C@@H](F)C2)/C=C/[C@@H]1C [Compound 247, [(2S,3S,4E,6R,7S,10R)-2-[(E)-1-(3-fluoro-5-morpholin-4-ylphenyl)prop-1-en-2-yl]-10-hydroxy-3,7-dimethyl-12-oxo-1-oxacyclododec-4-en-6-yl] (3R)-3-fluoropyrrolidine-1-carboxylate] | 14.4 nM |  |  |  |  | 50.8 nM | 34.6 nM | −67.545% | 31.4 nM | −77.509% | 40.5 nM | 1.467 |  | 
C/C(=C\c1cc(F)c2cn[nH]c2c1)[C@H]1OC(=O)C[C@H](O)CC[C@H](C)[C@@H](OC(=O)N2CCN(C)CC2)/C=C/[C@@H]1C [Compound 59] | 2.75 nM | 14.5 nM | −44.526% | −95.512% | 17.5 nM | 13600 nM | 46.1 nM |  |  |  |  |  |  | 
CC(=O)N1CCC(n2nnc3c(F)cc(/C=C(\C)[C@H]4OC(=O)C[C@H](O)CC[C@H](C)[C@@H](OC(=O)N5CCN(C)CC5)/C=C/[C@@H]4C)cc32)CC1 [Compound 160] | 1.65 nM | 0.896 nM | −86.403% | −82.399% | 1.15 nM | 4.68 nM | 4.69 nM |  |  |  |  |  |  | 
C/C(=C\c1cc(F)cc(N2CCOCC2)c1)[C@H]1OC(=O)C[C@H](O)CC[C@H](C)[C@@H](OC(=O)N2CCC(N(C)C)C2)/C=C/[C@@H]1C (stereo in doubt) [Compound 243, [(2S,3S,4E,6R,7S,10R)-2-[(E)-1-(3-fluoro-5-morpholin-4-ylphenyl)prop-1-en-2-yl]-10-hydroxy-3,7-dimethyl-12-oxo-1-oxacyclododec-4-en-6-yl] (3S)-3-(dimethylamino)pyrrolidine-1-carboxylate] | 3.59 nM |  |  |  |  | 98.4 nM | 38.5 nM | −71.678% | 10.6 nM | −92.290% | 10.4 nM | 2.553 |  | 
C/C(=C\c1cc(F)cc(N2CCO[C@@H](C)C2)c1)[C@H]1OC(=O)C[C@H](O)CC[C@H](C)[C@@H](OC(=O)N2CCN(C)CC2)/C=C/[C@@H]1C [Compound 69] | 3.83 nM |  | −76.018% | −86.274% |  | 36.7 nM | 20.9 nM |  |  |  |  |  | 4.04 nM | 7.48 nM
C/C(=C\c1cccc(COC(=O)N2CC[C@@H](F)C2)c1)[C@H]1OC(=O)C[C@H](O)CC[C@H](C)[C@@H](OC(=O)N2CCN(C)CC2)/C=C/[C@@H]1C (single isomer, unassigned) [Compound 256] | 15.6 nM |  |  |  |  | > 25000 nM | 112 nM | −5.090% | 60.9 nM | −88.839% | 43.4 nM | 222.862 |  | 
C/C(=C\c1cncc(S(=O)(=O)N2CCCC2)c1)[C@H]1OC(=O)C[C@H](O)CC[C@H](C)[C@@H](OC(=O)N2CCN(C)CC2)/C=C/[C@@H]1C [Compound 205, [(2S,3S,4E,6R,7S,10R)-10-hydroxy-3,7-dimethyl-12-oxo-2-[(E)-1-(5-pyrrolidin-1-ylsulfonylpyridin-3-yl)prop-1-en-2-yl]-1-oxacyclododec-4-en-6-yl] 4-methylpiperazine-1-carboxylate] | 16.2 nM |  |  |  |  | > 25000 nM | 108 nM | −28.455% | 85.9 nM | −91.576% | 70.8 nM | 232.132 |  | 
C/C(=C\c1cc(F)cc(N2CCN(CC(=O)C3CC3)CC2)c1)[C@H]1OC(=O)C[C@H](O)CC[C@H](C)[C@@H](OC(=O)N2CCN(C)CC2)/C=C/[C@@H]1C [Compound 84] | 2.75 nM | 4.3 nM | −80.428% | −89.010% | 5.61 nM | 29.6 nM | 22.1 nM |  |  |  |  |  |  | 
C/C(=C\c1cc(F)cc(N2CCOCC2)c1)[C@H]1OC(=O)C[C@H](O)CC[C@H](C)[C@@H](OC(=O)N2CCN(C(C)C)CC2)/C=C/[C@@H]1C [Compound 24] | 5.19 nM | 10.9 nM | −67.459% | −89.895% | 8.29 nM | 192 nM | 30.7 nM |  |  |  |  |  |  | 
C/C(=C\c1cc(N2CCOCC2)ccc1F)[C@H]1OC(=O)C[C@H](O)CC[C@H](C)[C@@H](OC(=O)N2CCC(N3CCCCC3)CC2)/C=C/[C@@H]1C [Compound 11] | 9.49 nM | 84.4 nM | −43.979% | −91.789% | 54.2 nM | > 25000 nM | 93.4 nM |  |  |  |  |  |  | 
